Data as given in ChEMBL document CHEMBL1201862, “PubChem BioAssay data set” (2004).
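Values below derive from 48-hour exposures of cells grown in 96-well plates, with endpoints linearly interpolated between the two concentrations bracketing the appropriate inhibition level. GI50 is the concentration that inhibits growth by half.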 Calls of active or inactive are those of the source. Rule as the data show it: active = GI50 up to about 1.1 µM and inactive = higher.

Tests used:
Test in all cases: growth of human tumour cells (NCI), 48 h
DLD-1 = system: DLD-1
DMS-114 = system: DMS-114
DMS-273 = system: DMS-273
HOP-18 = system: HOP-18
KM-20L2 = system: KM-20L2
M19-MEL = system: M19-MEL
SNB-78 = system: SNB-78
XF498 = system: XF498
RXF 631 = system: RXF 631

Measured: GI50

Nc1ncnc2c1ncn2C1OC(CSCc2ccc(Cl)cc2)C(O)C1O (centres undefined)
inactive: DLD-1 14.6 µM | DMS-114 21.9 µM | DMS-273 30.1 µM | HOP-18 42 µM | KM-20L2 9.55 µM | M19-MEL 33.7 µM | SNB-78 68.9 µM | XF498 22.8 µM

COC(CC1(OC)OC(=O)C=C1N)OC (centres undefined)
inactive: DLD-1 > 100 µM | DMS-114 > 100 µM | DMS-273 > 100 µM | HOP-18 > 100 µM | M19-MEL > 100 µM | SNB-78 > 100 µM

CC(=O)Nc1ccc(-c2nnc(SCC(=O)Nc3ccccc3C)o2)cc1
inactive: DLD-1 49.8 µM | DMS-114 > 100 µM | DMS-273 35.4 µM | HOP-18 > 100 µM | KM-20L2 69.3 µM | M19-MEL 70.1 µM | SNB-78 47 µM

CCCCCCC(O)C/C=C/CCCCCC/C(C(=O)OC)=C(/O)C(=O)OCC (centres undefined)
inactive: DLD-1 > 100 µM | DMS-114 > 100 µM | DMS-273 > 100 µM | HOP-18 > 100 µM | M19-MEL > 100 µM | RXF 631 > 100 µM | SNB-78 > 100 µM | XF498 > 100 µM

CC1=CC(O)(c2ccc(-c3ccccc3Cl)cc2)OC1=O (centres undefined)
inactive: DLD-1 > 100 µM | DMS-114 > 100 µM | DMS-273 > 100 µM | HOP-18 > 100 µM | KM-20L2 > 100 µM | M19-MEL > 100 µM | RXF 631 > 100 µM

COC1(C)CNCC(C)(C)NC(=O)C(C)(OC)CNCC(C)(C)NC1=O (centres undefined)
inactive: DLD-1 > 100 µM | DMS-114 > 100 µM | DMS-273 > 100 µM | HOP-18 > 100 µM | KM-20L2 > 100 µM | M19-MEL > 100 µM | RXF 631 > 100 µM | SNB-78 > 100 µM

CC(=O)c1ccc(NC(=O)C(=O)C(C(=O)/C=C/c2ccccc2)C2OC(=O)c3ccccc32)cc1 (centres undefined)
inactive: DLD-1 > 100 µM | DMS-273 > 100 µM | HOP-18 > 100 µM | KM-20L2 > 100 µM | M19-MEL > 100 µM | RXF 631 > 100 µM | SNB-78 > 100 µM | XF498 > 100 µM

C1CN1c1nc(N2CC2)nc(N2CC2)n1
inactive: DLD-1 18.4 µM | DMS-114 2.99 µM | DMS-273 1.31 µM | HOP-18 17.5 µM | KM-20L2 15.1 µM | M19-MEL 12.3 µM | RXF 631 11.3 µM | XF498 4.89 µM

N#CC(C#N)=C(N)/C(C#N)=C/c1cc(O)c(O)c(Br)c1
inactive: DLD-1 55.6 µM | DMS-114 29.1 µM | DMS-273 59.2 µM | KM-20L2 31.7 µM | M19-MEL > 100 µM | SNB-78 75.7 µM | XF498 35.7 µM

Cc1ccc(NC(=O)CCc2n[nH]c(=S)o2)cc1
inactive: DLD-1 > 100 µM | DMS-114 > 100 µM | DMS-273 > 100 µM | HOP-18 > 100 µM | KM-20L2 > 72.1 µM | M19-MEL > 100 µM | RXF 631 > 100 µM | SNB-78 > 100 µM | XF498 > 100 µM

C=CN1C(=O)[C@H](Oc2ccccc2)[C@@H]1c1ccccc1
inactive: DLD-1 28.5 µM | DMS-114 27.6 µM | HOP-18 37.8 µM | KM-20L2 31.7 µM | M19-MEL 43.4 µM | SNB-78 43.5 µM | XF498 26.1 µM

O=C(c1ccccc1)N1C2C3CC(OCc4ccccc4)(OCc4ccccc4)C(O3)C21 (centres undefined)
inactive: DLD-1 > 100 µM | DMS-114 > 100 µM | KM-20L2 > 100 µM | M19-MEL > 100 µM | RXF 631 > 100 µM | SNB-78 > 100 µM | XF498 > 100 µM

CCCCCCCCCCCC(=O)OC[C@@H](C[As](=O)(O)O)OC(=O)CCCCCCCCCCC
inactive: DLD-1 18 µM | DMS-114 2.12 µM | DMS-273 3.26 µM | HOP-18 14.5 µM | KM-20L2 13.4 µM | M19-MEL 6.05 µM | SNB-78 3.39 µM | XF498 14.2 µM

O=C(Nc1nc2ccccc2n1Cc1ccccc1)NC12CC3CC(CC(C3)C1)C2
inactive: DLD-1 87.9 µM | DMS-114 57.3 µM | DMS-273 16.9 µM | HOP-18 44.8 µM | KM-20L2 > 100 µM | M19-MEL 61.4 µM | SNB-78 19.8 µM | XF498 17.8 µM

O=C1c2ccccc2C(=O)N1C/C=N/NS(=O)(=O)c1cccc([N+](=O)[O-])c1
inactive: DLD-1 > 100 µM | DMS-114 > 100 µM | DMS-273 > 100 µM | KM-20L2 > 100 µM | M19-MEL > 100 µM | XF498 > 100 µM

CC(=O)/C=C/c1cccc(N=S)c1
inactive: DLD-1 4.88 µM | DMS-114 23 µM | DMS-273 7.06 µM | HOP-18 50 µM | KM-20L2 13.8 µM | M19-MEL 6.25 µM | RXF 631 39 µM | SNB-78 32.8 µM | XF498 > 100 µM

Cn1nc(-c2ccccc2)c(C(=O)/C=C/c2ccc(Cl)cc2)c(N2CCCC2)c1=O
inactive: DLD-1 2.69 µM | DMS-114 2.84 µM | DMS-273 3.62 µM | HOP-18 6.49 µM | KM-20L2 3.78 µM | M19-MEL 7.24 µM | RXF 631 6.12 µM | XF498 10.4 µM

O=c1cccccc1O.O=c1cccccc1O.O=c1cccccc1O.[SiH4]
inactive: DLD-1 6.43 µM | DMS-114 11.7 µM | DMS-273 14.5 µM | HOP-18 65.9 µM | KM-20L2 3.75 µM | M19-MEL 18.8 µM | XF498 17.7 µM

CN(C=O)/C=C/c1cc(O)ccc1O
inactive: DLD-1 20 µM | DMS-114 45.9 µM | DMS-273 > 39.4 µM | HOP-18 14.6 µM | KM-20L2 > 46 µM | M19-MEL 20.8 µM | RXF 631 47.5 µM | SNB-78 30.8 µM

CCN(CC)c1ccc(/N=N/c2ccc(-c3nc4cccnc4s3)cc2)cc1
inactive: DLD-1 > 100 µM | DMS-114 46.5 µM | KM-20L2 > 100 µM | M19-MEL 7.69 µM | SNB-78 > 100 µM | XF498 18.2 µM

CN(C)CC/C(=N\Nc1ccc(Cl)cc1Cl)c1ccccc1
inactive: DLD-1 10.3 µM | DMS-114 13.8 µM | DMS-273 13.8 µM | HOP-18 8.85 µM | KM-20L2 14.3 µM | M19-MEL 17.2 µM | SNB-78 13.5 µM

COC(=O)c1cccc2cccc(C(=O)Nc3ccc(C)cc3C)c12
inactive: DLD-1 > 100 µM | DMS-114 > 100 µM | DMS-273 > 100 µM | HOP-18 65.5 µM | KM-20L2 > 100 µM | M19-MEL > 100 µM | RXF 631 > 100 µM | SNB-78 > 100 µM | XF498 54.6 µM

Cn1c(=O)c(C(=O)NC(=O)NCCCCCOC(=O)CCCCCCCCCCC(=O)OCCCCCNC(=O)NC(=O)c2cn(Cc3ccccc3)c(=O)n(C)c2=O)cn(Cc2ccccc2)c1=O
inactive: DLD-1 > 100 µM | DMS-114 > 100 µM | DMS-273 > 100 µM | HOP-18 > 100 µM | KM-20L2 > 100 µM | M19-MEL > 100 µM | SNB-78 > 100 µM | XF498 > 100 µM

N#C/C(=C/c1cccc2ccccc12)C(=O)c1ccccc1
inactive: DMS-114 51.6 µM | KM-20L2 19 µM | M19-MEL 28.4 µM | SNB-78 42.9 µM | XF498 20.1 µM

CCC(=O)c1c(NOC2OC(COC(C)=O)C(OC(C)=O)C(OC(C)=O)C2OC(C)=O)nc(OC)n(C)c1=O (centres undefined)
inactive: DLD-1 > 100 µM | DMS-114 > 100 µM | DMS-273 > 100 µM | KM-20L2 > 100 µM | M19-MEL > 100 µM | RXF 631 > 100 µM | SNB-78 > 100 µM | XF498 > 100 µM

O=c1cc(-c2cccnc2)[nH]c2cc3c(cc12)OCO3
inactive: DLD-1 4.03 µM | DMS-114 7.01 µM | DMS-273 4.13 µM | HOP-18 1.17 µM | M19-MEL 3.59 µM | SNB-78 27.7 µM | XF498 7.36 µM

C=C1C(=O)OC2/C=C(/C)C3CC(O)C(C)(CC(OC(=O)/C(C)=C/C)C12)O3 (centres undefined)
inactive: DLD-1 1.54 µM | DMS-114 7.01 µM | DMS-273 2.54 µM | HOP-18 17.4 µM | KM-20L2 2.32 µM | M19-MEL 2.96 µM | SNB-78 2.61 µM | XF498 3.56 µM

COC(=O)C(CBr)CBr
inactive: DLD-1 2.04 µM | DMS-114 2.06 µM | DMS-273 12.7 µM | KM-20L2 6.76 µM | M19-MEL 3.21 µM | RXF 631 3.05 µM | SNB-78 1.79 µM | XF498 2.3 µM

CNC1=Nc2ccc(Cl)cc2C(OP(=O)(N2CCOCC2)N2CCOCC2)=NC1
inactive: DLD-1 > 100 µM | DMS-114 > 100 µM | DMS-273 > 100 µM | HOP-18 > 100 µM | KM-20L2 > 100 µM | M19-MEL > 100 µM | RXF 631 > 100 µM | SNB-78 > 100 µM | XF498 > 100 µM
